US20050131061A1, “Angiogenesis inhibitors” (Mercian Corporation, priority 2002, published 2005)

How the values were obtained:
[1] = system: K562 (leukemia); test: Toxicity to cultivated human cancer cells, MTT growth inhibition; format: cell-based; settings: 72 hours
Method: (§1) Note that the tests were performed as follows. Various kinds of human cancer cells (K562 (leukemia), H226 (lung cancer), DLD-1 (prostate cancer) and HT1080 (fibrosarcoma)) were suspended in RPMI1640 medium or DMEM medium containing 10% fetal calf serum and each adjusted to 5×10^3 cells/well, and 0.1 ml of this was seeded on a 96-well microplate. At the same time, a suitable amount of each of the substances F-1491 (substances F-1491A to F-1491H) was added and the resultant was cultivated at 37° C. for 72 hours in an atmosphere containing 5% CO2. Further, 10 μl of 0.5% MTT (3-[4,5-dimethylthiazol-2-yl]2,5-[…] tetrazolium bromide) was added and the resultant was cultivated for 4 hours. After the cultivation, 0.1 ml of 10% SDS-0.01N hydrochloric acid was added and absorbance at 570 nm was measured to determine 50% growth inhibition concentration.

[2] = system: DLD-1 (prostate cancer); test: as above; format: cell-based; settings: DLD-1 cells, 72 hours
Method: as §1

[3] = system: HT1080 (fibrosarcoma); test: as above; format: cell-based; settings: 72 hours
Method: as §1

[4] = system: H226 (lung cancer); test: as above; format: cell-based; settings: 72 hours
Method: as §1

[5] = system: human umbilical cord vein endothelial cells; test: Inhibition of proliferation of human umbilical cord vein endothelial cells (3H-thymidine incorporation); format: cell-based; settings: bFGF 10 μg/l, 48 hours + 8 hours 3H-thymidine
Method: That is, 0.1 ml of human umbilical cord vein endothelial cells (Cell Systems Corporation) adjusted to 2×10^3 cells/well in MCDB131 medium (Chlorella Industry Co., Ltd.) containing 10 μg/l basic fibroblast cell growth factor and 10% fetal calf serum is seeded on a collagen-coated 96-well microplate (Sumitomo Bakelite Co., Ltd.) and at the same time a suitable amount of sample is added. The resultant is cultivated in an atmosphere containing 5% CO2 at 37° C. for 48 hours. Further, 1 μCi/well ^3H-tymidine is added and cultivation is performed for 8 hours. Then, the cells are collected using a cell harvester and the radioactivity incorporated into cells is measured using a scintillation counter.
When the sample contains an active substance for inhibiting the growth of angioendothelial cells, the incorporation of radioactivity into the cells is suppressed. Further, an effective concentration range of the sample is obtained from the change in radioactivity in the cells depending on the concentration of the sample.

[6] = Solubility (physicochemical properties)
Method: • (1) Form: white powder • (2) Molecular formula: C24H34O3 • (Measurement of C24H35O3 by high resolution FAB mass spectrometry Calculated m/z: 371.2586 (M+H)^+, Found m/z: 371.2580) • (3) Specific optical rotation: [α]D^26−194° (c 0.1, methanol) • (4) Melting point: 55 to 58° C. • (5) Infrared absorption spectrum: The results obtained by measurement by the KBr method are as shown in FIG. 1. […] The chemical shift, multiplicity and spin coupling constant of each signal are shown in Table 1. • (9) ^13C-NMR spectrum: Measurement was performed by dissolving the substance in heavy methanol and using tetramethylsilane as an internal standard. 2. Physicochemical Properties of the Substance F-1491B • (1) Form: white powder • (2) Molecular formula: C23H32O3 • (Measurement of C23H33O3 by high resolution FAB mass spectrometry Calculated m/z: 357.2430 (M+H)^+, Found m/z: 357.2463), • (3) Specific optical rotation: [α]D^26-222° (c 0.1, methanol) • (4) Melting point: 53 to 56° C. • (5) Infrared absorption spectrum: The results obtained by measurement by the KBr method are as shown in FIG. 2. […] The chemical shift, multiplicity, and spin coupling constant of each signal are shown in Table 1. • (9) ^13C-NMR spectrum: Measurement was performed by dissolving the substance in heavy methanol and using tetramethylsilane as an internal standard. 3. Physicochemical Properties of the Substance F-1491C • (1) Form: white powder • (2) Molecular formula: C24H35O3Cl • (Measurement of C24H35O3Cl by high resolution ESI mass spectrometry Calculated m/z: 429.2172 (M+Na)^+, Found m/z: 429.2204) • (3) Ultraviolet absorption spectrum (measured in methanol): […]

[7] = in methanol, chloroform and dimethyl sulfoxide

| Solubility [6, 7] | Solubility ([6]; in water) | Compound | 50% growth inhibition concentration [1] [mg/L] | 50% growth inhibition concentration [2] [mg/L] | 50% growth inhibition concentration [3] [mg/L] | 50% growth inhibition concentration [4] [mg/L] | 50% growth inhibition concentration [5] [mg/L] |
| --- | --- | --- | --- | --- | --- | --- | --- |
| Soluble | hardly soluble | CC=C(C)C1C(C=CC=C(C)C(=O)CC)C2CC3OC3(C)CC2C2OC21C (centres unmarked) [F-1491A] | 39 | >100 | >100 | >100 | 2.2 |
| – | – | CC=C(C)C1C(C=CC=C(C)C(C)=O)C2CC(Cl)C(C)(O)CC2C2OC21C (centres unmarked) [F-1491D] | 80 | >100 | >100 | >100 | 4.6 |
| – | – | CC=C(C)C1C(C=CC=C(C)C(C)=O)C2CCC(C)(O)CC2C2OC21C (centres unmarked) [F-1491F] | 72 | >100 | >100 | >100 | 9.3 |
| Soluble | hardly soluble | CC=C(C)C1C(C=CC=C(C)C(C)=O)C2CC3OC3(C)CC2C2OC21C (centres unmarked) [F-1491B] | 36 | >100 | >100 | >100 | 3.4 |
| – | – | CC=C(C)C1C(C=CC=C(C)C(C)=O)C2CC(O)C(C)(O)CC2C2OC21C (centres unmarked) [F-1491H] | 61 | >100 | >100 | >100 | 5.6 |
| – | – | CC=C(C)C1C(C=CC=C(C)C(C)=O)C2CC(OC)C(C)(O)CC2C2OC21C (centres unmarked) [F-1491G] | 95 | >100 | >100 | >100 | 7.7 |
| – | – | CC=C(C)C1C(C=CC=C(C)C(=O)CC)C2CC(Cl)C(C)(O)CC2C2OC21C (centres unmarked) [F-1491C] | 52 | >100 | >100 | >100 | 7.4 |
| – | – | CC=C(C)C1C(C=CC=C(C)C(=O)CC)C2CCC(C)(O)CC2C2OC21C (centres unmarked) [F-1491E] | 68 | >100 | >100 | >100 | 3.2 |
